This note sets out measurements from patent US20140163012A1, “PYRIDO-/AZEPINO-BENZOFURAN AND PYRIDO-/AZEPINO-BENZOTHIOPHENE MCH-1 ANTAGONISTS, METHODS OF MAKING, AND USE THEREOF” (Albany Molecular Research, Inc., priority 2012, published 2014).

Structures are written as SMILES. Where a name gives a salt, the structure may show the parent alone.

human MCH-1 receptor, sequence (Q99705 whole entry): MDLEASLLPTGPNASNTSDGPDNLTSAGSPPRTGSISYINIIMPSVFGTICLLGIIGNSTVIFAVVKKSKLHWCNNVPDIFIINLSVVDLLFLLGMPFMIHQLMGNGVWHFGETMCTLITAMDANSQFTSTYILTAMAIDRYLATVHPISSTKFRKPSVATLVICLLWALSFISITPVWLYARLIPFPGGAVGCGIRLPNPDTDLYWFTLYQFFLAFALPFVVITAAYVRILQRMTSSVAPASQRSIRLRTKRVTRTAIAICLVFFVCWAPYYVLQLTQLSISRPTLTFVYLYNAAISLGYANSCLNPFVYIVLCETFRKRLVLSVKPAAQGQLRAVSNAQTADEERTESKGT

One test concerns the target human MCH-1 receptor (Homo sapiens, UniProt Q99705). Put plainly: Binding assay for human melanin-concentrating hormone (MCH-1) receptor, radioligand displacement on CHO-K1 cell membranes.
Settings: not given
For orientation: Ki means a measure of affinity in units of concentration, obtained from inhibition or displacement. A low value points to a stronger hold on the target. On to `CN1CCc2oc3cc(-n4ccc(OCc5ccccc5)cc4=O)ccc3c2C1` [Example 27, 4-(Benzyloxy)-1-(2-methyl-1,2,3,4-tetrahydrobenzofuro[3,2-c]pyridin-7-yl)pyridin-2(1H)-one hydrochloride], for which the Ki was 8.1 nM.

As for `CN1CCCc2oc3cc(N4CCN(CCc5ccc(Cl)cn5)CC4=O)ccc3c2C1` [Example 94, 4-(2-(5-Chloropyridin-2-yl)ethyl)-1-(2-methyl-2,3,4,5-tetrahydro-1H-benzofuro[3,2-c]azepin-8-yl)piperazin-2-one hydrochloride], the Ki is 103 nM.

In the case of `O=c1nc(CCc2ccc(Cl)cn2)ccn1-c1ccc2c3c(oc2c1)CCCNC3` [Example 103, 4-(2-(5-Chloropyridin-2-yl)ethyl)-1-(2,3,4,5-tetrahydro-1H-benzofuro[3,2-c]azepin-8-yl)pyrimidin-2(1H)-one hydrochloride], the Ki is 8 nM.

On to `O=c1cc(OCc2ccc(Cl)cn2)ccn1-c1ccc2c3c(sc2c1)CCNCC3` [Example 20, 4-((5-Chloropyridin-2-yl)methoxy)-1-(2,3,4,5-tetrahydro-1H-benzothieno[2,3-d]azepin-8-yl)pyridin-2(1H)-one], for which the Ki is 3.8 nM.

Turning to `Cc1ccc(COc2ccn(-c3ccc4c5c(oc4c3)CCCN(C)C5)c(=O)c2)cn1` [Example 85, 1-(2-Methyl-2,3,4,5-tetrahydro-1H-benzofuro[3,2-c]azepin-8-yl)-4-((6-methylpyridin-3-yl)methoxy)pyridin-2(1H)-one hydrochloride], the affinity corresponds to a Ki of 116 nM. This Ki lies about 31-fold higher than the previous one.

As for `CC(=O)N1CCc2oc3cc(-n4ccc(OCc5ccccc5)cc4=O)ccc3c2C1` [Example 25, 1-(2-Acetyl-1,2,3,4-tetrahydrobenzofuro[3,2-c]pyridin-7-yl)-4-(benzyloxy)pyridin-2(1H)-one], the Ki turned out to be 23 nM.

The compound `O=c1cc(-c2ccc(C(F)(F)F)cn2)ccn1-c1ccc2c3c(sc2c1)CNCC3` [Example 12, 1-(1,2,3,4-Tetrahydrobenzothieno[2,3-c]pyridin-7-yl)-4-(5-(trifluoromethyl)pyridin-2-yl)pyridin-2(1H)-one hydrochloride] showed a Ki of 93 nM.

`CCN1CCc2oc3cc(-n4ccc(OCc5ccc(F)cn5)cc4=O)ccc3c2C1` [Example 24, 1-(2-Ethyl-1,2,3,4-tetrahydrobenzofuro[3,2-c]pyridin-7-yl)-4-((5-fluoropyridin-2-yl)methoxy)pyridin-2(1H)-one] had a Ki of 13 nM.

`CN1CCc2c(sc3cc(-n4ccc(OCc5ccc(F)cn5)cc4=O)ccc23)C1` [Example 58, 4-((5-Fluoropyridin-2-yl)methoxy)-1-(2-methyl-1,2,3,4-tetrahydrobenzothieno[2,3-c]pyridin-7-yl)pyridin-2(1H)-one hydrochloride] returned a Ki of 6.2 nM. This Ki lies about 2.1-fold lower than the previous one.

On to `CC(C)N1CCc2oc3cc(-n4ccc(OCc5ccccc5)cc4=O)ccc3c2C1` [Example 30, 4-(Benzyloxy)-1-(2-isopropyl-1,2,3,4-tetrahydrobenzofuro[3,2-c]pyridin-7-yl)pyridin-2(1H)-one hydrochloride], for which the Ki stood at 9 nM.

The compound `C[C@H]1Cc2oc3cc(-n4ccc(OCc5ccccn5)cc4=O)ccc3c2CN1` [Example 34, (S)-1-(3-Methyl-1,2,3,4-tetrahydrobenzofuro[3,2-c]pyridin-7-yl)-4-(pyridin-2-ylmethoxy)pyridin-2(1H)-one hydrochloride] yielded a Ki of 38 nM. This Ki lies about 4.2-fold higher than the previous one.

As for `O=C1CN(CCc2ccc(Cl)cn2)CCN1c1ccc2c3c(oc2c1)CCCNC3` [Example 90, 4-(2-(5-Chloropyridin-2-yl)ethyl)-1-(2,3,4,5-tetrahydro-1H-benzofuro[3,2-c]azepin-8-yl)piperazin-2-one hydrochloride], the Ki is 19 nM. Compared with the last compound, the Ki is about 2-fold lower.

Turning to `O=c1cc(CCc2ccc(F)cn2)ccn1-c1ccc2c3c(oc2c1)CCCNC3` [Example 100, 4-(2-(5-Fluoropyridin-2-yl)ethyl)-1-(2,3,4,5-tetrahydro-1H-benzofuro[3,2-c]azepin-8-yl)pyridin-2(1H)-one hydrochloride], the Ki was 8.1 nM.

Compound `C[C@@H]1NCCc2oc3cc(-n4ccc(OCc5ccccn5)cc4=O)ccc3c21` [Example 35, (S)-1-(1-Methyl-1,2,3,4-tetrahydrobenzofuro[3,2-c]pyridin-7-yl)-4-(pyridin-2-ylmethoxy)pyridin-2(1H)-one hydrochloride] displayed a Ki of 57 nM.

For the compound `O=c1cc(OCc2ccc(F)cn2)ccn1-c1ccc2oc3c(c2c1)CCNCC3` [Example 79, 4-((5-Fluoropyridin-2-yl)methoxy)-1-(2,3,4,5-tetrahydro-1H-benzofuro[2,3-d]azepin-9-yl)pyridin-2(1H)-one hydrochloride], the affinity corresponds to a Ki of 78 nM.

Take `O=c1cc(OCc2ccc(F)cn2)ccn1-c1ccc2c3c(oc2c1)CCN1CCCC31` (stereo not drawn) [Example 80, 4-((5-Fluoropyridin-2-yl)methoxy)-1-(1,2,3,5,6,11c-hexahydrobenzofuro[2,3-g]indolizin-9-yl)pyridin-2(1H)-one hydrochloride]: the affinity, expressed as Ki, was 8.3 nM.

As for `O=c1cc(OCc2ccc(F)cn2)ccn1-c1ccc2c3c(oc2c1)CNCC3` [Example 3, 4-((5-Fluoropyridin-2-yl)methoxy)-1-(1,2,3,4-tetrahydrobenzofuro[2,3-c]pyridin-7-yl)pyridin-2(1H)-one hydrochloride], affinity was put at a Ki of 59 nM. Compared with the last compound, the Ki is about 7.1-fold higher.

`O=c1cc(OCc2ccccc2)ccn1-c1ccc2c3c(sc2c1)CNCCC3` [Example 19, 4-(Benzyloxy)-1-(2,3,4,5-tetrahydro-1H-benzothieno[2,3-c]azepin-8-yl)pyridin-2(1H)-one] came in with a Ki of 8.2 nM.

On to `O=c1cc(OCc2ccccc2)ccn1-c1ccc2oc3c(c2c1)CCNCC3` [Example 77, 4-(Benzyloxy)-1-(2,3,4,5-tetrahydro-1H-benzofuro[2,3-d]azepin-9-yl)pyridin-2(1H)-one hydrochloride], for which the Ki is 44 nM.

Regarding `O=c1cc(OCc2ccccc2)ccn1-c1ccc2c3c(oc2c1)CCNCC3` [Example 41, 4-(Benzyloxy)-1-(2,3,4,5-tetrahydro-1H-benzofuro[2,3-d]azepin-8-yl)pyridin-2(1H)-one hydrochloride], affinity was put at a Ki of 5.7 nM.

Take `O=c1cc(OCc2ccccc2)ccn1-c1ccc2c3c(oc2c1)CC1CCC3N1` (stereo not drawn) [Example 128, 4-(Benzyloxy)-1-(7,8,9,10-tetrahydro-6H-7,10-epiminocyclohepta[b]benzofuran-3-yl)pyridin-2(1H)-one hydrochloride]: the affinity corresponds to a Ki of 11 nM.

`O=C1CN(CCc2ccc(Cl)cc2)CCN1c1ccc2c3c(oc2c1)CCNCC3` [Example 99, 4-(4-Chlorophenethyl)-1-(2,3,4,5-tetrahydro-1H-benzofuro[2,3-d]azepin-8-yl)piperazin-2-one hydrochloride] returned a Ki of 98 nM.

Regarding `CN1CCCc2oc3cc(-n4ccc(-c5ccc(C(F)(F)F)cc5)cc4=O)ccc3c2C1` [Example 82, 1-(2-Methyl-2,3,4,5-tetrahydro-1H-benzofuro[3,2-c]azepin-8-yl)-4-(4-(trifluoromethyl)phenyl)pyridin-2(1H)-one hydrochloride], the Ki stood at 8.2 nM.

Compound `O=c1cc(OCc2ccc(F)cn2)ccn1-c1ccc2c3c(oc2c1)CCNCC3` [Example 39, 4-((5-Fluoropyridin-2-yl)methoxy)-1-(2,3,4,5-tetrahydro-1H-benzofuro[2,3-d]azepin-8-yl)pyridin-2(1H)-one hydrochloride] yielded a Ki of 9 nM. This Ki and that of the compound before are within 1.5-fold of each other.

As for `O=c1cc(CCc2ccc(Cl)cn2)ccn1-c1ccc2c3c(sc2c1)CNCC3` [Example 125, 4-((5-Chloropyridin-2-yl)ethyl)-1-(1,2,3,4-tetrahydrobenzothieno[2,3-c]pyridin-7-yl)pyridin-2(1H)-one hydrochloride], the Ki came to 10 nM.

`O=c1cc(OCc2ccc(F)cn2)cnn1-c1ccc2c3c(sc2c1)CNCC3` [Example 61, 5-((5-Fluoropyridin-2-yl)methoxy)-2-(1,2,3,4-tetrahydrobenzothieno[2,3-c]pyridin-7-yl)pyridazin-3(2H)-one]: the Ki was 34 nM.

Consider `O=c1cc(OCc2ccc(F)cn2)ccn1-c1ccc2c3c(sc2c1)CN(CCF)CC3` [Example 59, 1-(2-(2-Fluoroethyl)-1,2,3,4-tetrahydrobenzothieno[2,3-c]pyridin-7-yl)-4-((5-fluoropyridin-2-yl)methoxy)pyridin-2(1H)-one hydrochloride], for which the Ki stood at 36 nM. The Ki values of the last two compounds are within 1.5-fold of each other.

`O=c1cc(OCc2ccccc2)ccn1-c1ccc2c3c(oc2c1)CCNC3` [Example 6, 4-(Benzyloxy)-1-(1,2,3,4-tetrahydrobenzofuro[3,2-c]pyridin-7-yl)pyridin-2(1H)-one hydrochloride] had a Ki of 3.3 nM.

`O=c1cc(OCc2ccc(F)cn2)ccn1-c1ccc2c3c(oc2c1)CCNC3` [Example 7, 4-((5-Fluoropyridin-2-yl)methoxy)-1-(1,2,3,4-tetrahydrobenzofuro[3,2-c]pyridin-7-yl)pyridin-2(1H)-one hydrochloride] showed a Ki of 7.3 nM.

Regarding `O=c1cc(OCc2ccc(F)cn2)ccn1-c1ccc2c3c(oc2c1)CCCNC3` [Example 37, 4-((5-Fluoropyridin-2-yl)methoxy)-1-(2,3,4,5-tetrahydro-1H-benzofuro[3,2-c]azepin-8-yl)pyridin-2(1H)-one hydrochloride], the Ki was 4.5 nM. Compared with the last compound, the Ki is about 1.6-fold lower.

Take `O=c1cc(OCc2ccc(F)cn2)ccn1-c1ccc2c3c(sc2c1)CCNCC3` [Example 21, 4-((5-Fluoropyridin-2-yl)methoxy)-1-(2,3,4,5-tetrahydro-1H-benzothieno[2,3-d]azepin-8-yl)pyridin-2(1H)-one]: the affinity, expressed as Ki, was 3.8 nM.

Staying with this test, now noted: read-out: MCH1 % inhibition @ 1 uM.
The term inhibition denotes the drop in the measured response relative to a control, in per cent. Regarding `O=c1cc(OCc2ccc(F)cn2)ccn1-c1ccc2oc3c(c2c1)CCCNC3` [Example 109, 4-((5-Fluoropyridin-2-yl)methoxy)-1-(2,3,4,5-tetrahydro-1H-benzofuro[2,3-c]azepin-7-yl)pyridin-2(1H)-one hydrochloride], the inhibition at 1 µM came out at 12%.

On to `O=c1cc(OCc2ccc(F)cn2)ccn1-c1ccc2oc3c(c2c1)CNCCC3` [Example 75, 4-((5-Fluoropyridin-2-yl)methoxy)-1-(2,3,4,5-tetrahydro-1H-benzofuro[3,2-c]azepin-9-yl)pyridin-2(1H)-one hydrochloride], for which the inhibition at 1 µM was 34%.
